# Laboratory results reported in patent publication US7919498B2, “Substituted pyrazolo[3,4-d]pyrimidines as PI3K inhibitors” (Amgen Inc., priority 2007, dated 2011).
# Target: T1, PI3Kδ (Homo sapiens, UniProt O00329)
# T1 construct: Full length p110 subunits of PI3k α, β and δ, N-terminally labeled with polyHis tag; polyHis (N); made in house; host or cells: Sf9 insect cells (baculovirus)
# Assay: In vitro enzyme assay of PI3Kδ (residual ATP bioluminescence)
# Format: biochemical
# Settings: not given
# Procedure: Recombinant Expression of PI3Ks
# Full length p110 subunits of PI3k α, β and δ, N-terminally labeled with polyHis tag, were coexpressed with p85 with Baculo virus expression vectors in sf9 insect cells. P110/p85 heterodimers were purified by sequential Ni-NTA, Q-HP, Superdex-100 chromatography. Purified α, β and δ isozymes were stored at −20° C. in 20 mM Tris, pH 8, 0.2M NaCl, 50% glycerol, 5 mM DTT, 2 mM Na cholate. Truncated PI3Kγ, residues 114-1102, N-terminally labeled with polyHis tag, was expressed with Baculo virus in Hi5 insect cells. The γ isozyme was purified by sequential Ni-NTA, Superdex-200, Q-HP chromatography. The γ isozyme was stored frozen at −80° C. in NaH2PO4, pH 8, 0.2M NaCl, 1% ethylene glycol, 2 mM β-mercaptoethanol.
# Assays were performed in 25 μL with the above final concentrations of components in white polyproplyene plates (Costar 3355). Phospatidyl inositol phosphoacceptor, PtdIns(4,5)P2 P4508, was from Echelon Biosciences. The ATPase activity of the alpha and gamma isozymes was not greatly stimulated by PtdIns(4,5)P2 under these conditions and was therefore omitted from the assay of these isozymes. Test compounds were dissolved in dimethyl sulfoxide and diluted with three-fold serial dilutions. The compound in DMSO (1 μL) was added per test well, and the inhibition relative to reactions containing no compound, with and without enzyme was determined. After assay incubation at room temperature, the reaction was stopped and residual ATP determined by addition of an equal volume of a commercial ATP bioluminescence kit (Perkin Elmer EasyLite) according to the manufacturer's instructions, and detected using a AnalystGT luminometer.
# T1 sequence (O00329 whole entry): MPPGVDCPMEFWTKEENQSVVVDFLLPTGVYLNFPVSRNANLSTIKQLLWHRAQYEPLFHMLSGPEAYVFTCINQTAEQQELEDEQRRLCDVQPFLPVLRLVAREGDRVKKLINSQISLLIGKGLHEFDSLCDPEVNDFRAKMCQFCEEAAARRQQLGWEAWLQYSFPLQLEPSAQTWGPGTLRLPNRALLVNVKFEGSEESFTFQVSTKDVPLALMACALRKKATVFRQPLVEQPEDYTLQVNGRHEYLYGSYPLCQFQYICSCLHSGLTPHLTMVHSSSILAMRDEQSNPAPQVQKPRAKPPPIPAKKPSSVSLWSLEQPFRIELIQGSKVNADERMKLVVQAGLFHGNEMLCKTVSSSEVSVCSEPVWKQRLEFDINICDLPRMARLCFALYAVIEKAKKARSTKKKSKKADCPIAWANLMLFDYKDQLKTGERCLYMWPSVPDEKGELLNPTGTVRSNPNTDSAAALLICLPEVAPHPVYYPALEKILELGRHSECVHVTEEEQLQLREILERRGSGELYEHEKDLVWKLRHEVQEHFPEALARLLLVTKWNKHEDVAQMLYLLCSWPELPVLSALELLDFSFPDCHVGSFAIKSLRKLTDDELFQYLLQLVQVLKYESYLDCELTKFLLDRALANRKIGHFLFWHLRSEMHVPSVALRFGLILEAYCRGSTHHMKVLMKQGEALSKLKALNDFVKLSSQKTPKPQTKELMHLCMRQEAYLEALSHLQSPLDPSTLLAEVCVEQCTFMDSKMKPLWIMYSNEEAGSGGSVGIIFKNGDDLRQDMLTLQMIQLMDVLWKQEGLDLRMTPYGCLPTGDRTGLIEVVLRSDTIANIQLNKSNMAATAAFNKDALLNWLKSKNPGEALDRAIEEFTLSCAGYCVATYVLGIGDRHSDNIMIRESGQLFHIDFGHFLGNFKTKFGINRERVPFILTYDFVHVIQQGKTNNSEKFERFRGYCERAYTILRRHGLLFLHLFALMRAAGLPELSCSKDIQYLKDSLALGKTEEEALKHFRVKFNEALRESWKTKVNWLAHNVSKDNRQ
# T1 sequence (P27986 whole entry partner): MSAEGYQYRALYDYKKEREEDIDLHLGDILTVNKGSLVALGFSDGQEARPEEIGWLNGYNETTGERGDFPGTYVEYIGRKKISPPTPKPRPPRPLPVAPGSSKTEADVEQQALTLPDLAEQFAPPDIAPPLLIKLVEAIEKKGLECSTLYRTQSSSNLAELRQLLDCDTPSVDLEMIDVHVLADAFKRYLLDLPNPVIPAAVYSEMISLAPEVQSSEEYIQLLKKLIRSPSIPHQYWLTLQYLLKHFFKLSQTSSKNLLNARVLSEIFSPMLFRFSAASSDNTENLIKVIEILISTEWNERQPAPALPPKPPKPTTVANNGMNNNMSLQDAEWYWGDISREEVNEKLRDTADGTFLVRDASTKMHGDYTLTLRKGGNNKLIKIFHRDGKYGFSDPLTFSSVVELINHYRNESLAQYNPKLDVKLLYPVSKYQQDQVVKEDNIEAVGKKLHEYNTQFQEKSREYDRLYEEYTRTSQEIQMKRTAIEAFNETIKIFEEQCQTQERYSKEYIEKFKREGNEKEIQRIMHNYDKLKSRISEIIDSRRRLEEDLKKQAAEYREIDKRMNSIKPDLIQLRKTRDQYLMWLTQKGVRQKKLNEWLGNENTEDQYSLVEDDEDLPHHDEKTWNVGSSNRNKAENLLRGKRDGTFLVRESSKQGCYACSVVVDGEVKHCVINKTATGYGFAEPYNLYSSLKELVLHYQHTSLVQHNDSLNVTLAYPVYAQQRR
row,IC50 [nM],Compound
1,2130,"Cc1cccc2cc(Cn3cnc4c(N)ncnc43)c(-c3ccccc3Cl)nc12 [Example 1, 9-((2-(2-Chlorophenyl)-8-methylquinolin-3-yl)methyl)-9H-purin-6-amine]"
2,58,"Cc1cccc2cc(Cn3ccc(=O)c4c(N)ncnc43)c(-c3ccccc3Cl)nc12 [Example 2, 4-Amino-8-((2-(2-chlorophenyl)-8-methylquinolin-3-yl)methyl)pyrido[2,3-d]pyrimidin-5(8H)-one]"
3,6,"Cc1ccccc1-c1nc2c(C)cccc2cc1Cn1nc(I)c2c(N)ncnc21 [Example 4, 3-Iodo-1-((8-methyl-2-o-tolylquinolin-3-yl)methyl)-1H-pyrazolo[3,4-d]pyrimidin-4-amine]"
4,14,"Nc1ncnc2c1c(I)nn2Cc1cc2cccc(Cl)c2nc1-c1ccccc1Cl [Example 5, 1-((8-Chloro-2-(2-chlorophenyl)quinolin-3-yl)methyl)-3-iodo-1H-pyrazolo[3,4-d]pyrimidin-4-amine]"
5,7,"Nc1ncnc2c1c(I)nn2Cc1cc2cccc(Cl)c2nc1-c1ccccc1C(F)(F)F [Example 6, 1-((8-Chloro-2-(2-(trifluoromethyl)phenyl)quinolin-3-yl)methyl)-3-iodo-1H-pyrazolo[3,4-d]pyrimidin-4-amine]"
6,4,"Cc1cccc2cc(Cn3nc(I)c4c(N)ncnc43)c(-c3ccccc3F)nc12 [Example 7, 1-((2-(2-Fluorophenyl)-8-methylquinolin-3-yl)methyl)-3-iodo-1H-pyrazolo[3,4-d]pyrimidin-4-amine]"
7,8,"Cc1cccc2cc(Cn3nc(-c4cccc(O)c4)c4c(N)ncnc43)c(-c3ccccc3C(F)(F)F)nc12 [Example 8, 3-(4-Amino-1-((8-methyl-2-(2-(trifluoromethyl)phenyl)quinolin-3-yl)methyl)-1H-pyrazolo[3,4-d]pyrimidin-3-yl)phenol]"
8,14,"Nc1ncnc2c1c(-c1cccc(O)c1)nn2Cc1cc2cccc(Cl)c2nc1-c1ccccc1Cl [Example 10, 3-(4-Amino-1-((8-chloro-2-(2-chlorophenyl)quinolin-3-yl)methyl)-1H-pyrazolo[3,4-d]pyrimidin-3-yl)phenol]"
9,137,"Cc1cccc2cc(Cn3nc(C)c4c(N)ncnc43)c(-c3ccccc3Cl)nc12 [Example 11, 1-((2-(2-Chlorophenyl)-8-methylquinolin-3-yl)methyl)-3-methyl-1H-pyrazolo[3,4-d]pyrimidin-4-amine]"
10,8,"Cc1cccc2cc(Cn3nc(-c4cn[nH]c4)c4c(N)ncnc43)c(-c3ccccc3C(F)(F)F)nc12 [Example 12, 1-((8-Methyl-2-(2-(trifluoromethyl)phenyl)quinolin-3-yl)methyl)-3-(1H-pyrazol-4-yl)-1H-pyrazolo[3,4-d]pyrimidin-4-amine]"
11,149,"Cc1cccc2cc(Cn3nc(C4CC4)c4c(N)ncnc43)c(-c3ccccc3C(F)(F)F)nc12 [Example 13, 3-Cyclopropyl-1-((8-methyl-2-(2-(trifluoromethyl)phenyl)quinolin-3-yl)methyl)-1H-pyrazolo[3,4-d]pyrimidin-4-amine]"
12,38,"Cc1cccc2nc(-c3ccccc3Cl)c(Cn3nc(I)c4c(N)ncnc43)nc12 [Example 15, 1-((3-(2-Chlorophenyl)-8-methylquinoxalin-2-yl)methyl)-3-iodo-1H-pyrazolo[3,4-d]pyrimidin-4-amine]"
13,21,"Cc1cccc2nc(Cn3nc(I)c4c(N)ncnc43)c(-c3ccccc3Cl)nc12 [Example 16, 1-((3-(2-Chlorophenyl)-5-methylquinoxalin-2-yl)methyl)-3-iodo-1H-pyrazolo[3,4-d]pyrimidin-4-amine]"
14,18,"Cc1cccc2nc(-c3ccccc3Cl)c(Cn3nc(-c4cn[nH]c4)c4c(N)ncnc43)nc12 [Example 17, 1-((3-(2-Chlorophenyl)-8-methylquinoxalin-2-yl)methyl)-3-(1H-pyrazol-4-yl)-1H-pyrazolo[3,4-d]pyrimidin-4-amine]"
15,30,"Cc1cccc2nc(Cn3nc(-c4cn[nH]c4)c4c(N)ncnc43)c(-c3ccccc3Cl)nc12 [Example 18, 1-((3-(2-Chlorophenyl)-5-methylquinoxalin-2-yl)methyl)-3-(1H-pyrazol-4-yl)-1H-pyrazolo[3,4-d]pyrimidin-4-amine]"
16,1970,"Cc1cccc2cc(Cn3ccc4c(N)ncnc43)c(-c3ccccc3Cl)nc12 [Example 19, 7-((2-(2-Chlorophenyl)-8-methylquinolin-3-yl)methyl)-7H-pyrrolo[2,3-d]pyrimidin-4-amine]"
17,20,"Cc1cccc2cc(Cn3cc(Cl)c4c(N)ncnc43)c(-c3ccccc3Cl)nc12 [Example 20, 5-Chloro-7-((2-(2-chlorophenyl)-8-methylquinolin-3-yl)methyl)-7H-pyrrolo[2,3-d]pyrimidin-4-amine]"
18,33,"Nc1ncnc2c1c(=O)ccn2Cc1cc2cccc(Cl)c2nc1-c1ccccc1Cl [Example 22, 4-Amino-8-((8-chloro-2-(2-chlorophenyl)quinolin-3-yl)methyl)pyrido[2,3-d]pyrimidin-5(8H)-one]"

row,Compound,IC50 [nM]
1,"Cc1cccc2cc(Cn3nc(C#CC(C)(C)O)c4c(N)ncnc43)c(-c3ccccc3C(F)(F)F)nc12 [Example 14, 4-(4-Amino-1-((8-methyl-2-(2-(trifluoromethyl)phenyl)quinolin-3-yl)methyl)-1H-pyrazolo[3,4-d]pyrimidin-3-yl)-2-methylbut-3-yn-2-ol]",116
2,"COc1ccccc1-n1c(Cn2ccc(=O)c3c(N)ncnc32)nc2cccc(Cl)c2c1=O [Example 21, 4-Amino-8-((5-chloro-3-(2-methoxyphenyl)-4-oxo-3,4-dihydroquinazolin-2-yl)methyl)pyrido[2,3-d]pyrimidin-5(8H)-one]",13

# Tested on: human B cells
# Assay: Human B cells proliferation stimulated by anti-IgM
# Format: cell-based
# Settings: B-cell; anti-Human IgM + CD40L-LZ, 72 h, 3H thymidine
# Procedure: Human B Cells Proliferation Stimulate by Anti-IgM
# Isolate PBMCs from Leukopac or from human fresh blood. Isolate human B cells by using Miltenyi protocol and B cell isolation kit II.—human B cells were Purified by using AutoMacs.column.
# Activation of Human B Cells
# Use 96 well Flat bottom plate, plate 50000/well purified B cells in B cell proliferation medium (DMEM+5% FCS, 10 mM Hepes, 50 μM 2-mercaptoethanol); 150 μL medium contain 250 ng/mL CD40L-LZ recombinant protein (Amgen) and 2 μg/mL anti-Human IgM antibody (Jackson ImmunoReseach Lab.# 109-006-129), mixed with 50 μL B cell medium containing PI3K inhibitors and incubate 72 h at 37° C. incubator. After 72 h, pulse labeling B cells with 0.5-1 uCi/well ^3H thymidine for overnight ˜18 h, and harvest cell using TOM harvester.
row,Compound,IC50 [nM]
1,"Nc1ncnc2c1c(I)nn2Cc1nc2cccc(F)c2nc1-c1ccccc1Cl [1-((3-(2-Chlorophenyl)-5-fluoroquinoxalin-2-yl)methyl)-3-iodo-1H-pyrazolo[3,4-d]pyrimidin-4-amine]",554
2,"Nc1ncnc2c1c(I)nn2Cc1nc2c(F)cccc2nc1-c1ccccc1Cl [1-((3-(2-Chlorophenyl)-8-fluoroquinoxalin-2-yl)methyl)-3-iodo-1H-pyrazolo[3,4-d]pyrimidin-4-amine]",818
3,"Cc1cccc2nc(Cn3nc(-c4cnn(C)c4)c4c(N)ncnc43)c(-c3ccccc3Cl)nc12 [1-((3-(2-chlorophenyl)-5-methylquinoxalin-2-yl)methyl)-3-(1-methyl-1H-pyrazol-4-yl)-1H-pyrazolo[3,4-d]pyrimidin-4-amine]",37
4,"Cc1cccc2nc(-c3ccccc3Cl)c(Cn3nc(-c4cnn(C)c4)c4c(N)ncnc43)nc12 [1-((3-(2-chlorophenyl)-8-methylquinoxalin-2-yl)methyl)-3-(1-methyl-1H-pyrazol-4-yl)-1H-pyrazolo[3,4-d]pyrimidin-4-amine]",19.8
5,"Nc1ncnc2c1c(-c1cn[nH]c1)nn2Cc1cc2cccc(Cl)c2nc1-c1ccccc1F [1-((8-chloro-2-(2-fluorophenyl)-3-quinolinyl)methyl)-3-(1H-pyrazol-4-yl)-1H-pyrazolo[3,4-d]pyrimidin-4-amine]",18.2
6,"Cc1cccc2nc(Cn3nc(I)c4c(N)ncnc43)c(-c3cccc(F)c3)c(=O)n12 [2-((4-amino-3-iodo-1H-pyrazolo[3,4-d]pyrimidin-1-yl)-methyl)-3-(3-fluorophenyl)-6-methyl-4H-pyrido[1,2-a]pyrimidin-4-one]",512
